Results published in US20060014193A1, “Nucleoside phosphoramidates and nucleoside phosphoramidases” (priority 2004, published 2006).
Marks after values point to notes of the source that are not given here.

Legend:
Rabbit HINT1 = biological target: T1, Rabbit HINT1 (Oryctolagus cuniculus, UniProt P80912); details: Bieganowski et al, 2002; cited from earlier work
T1 construct: made in house; host or cells: E. coli hinT deletion mutant

hHINT1 [1] = biological target: T2, hHINT1 (Homo sapiens, UniProt P49773); details: literature (J. Biol. Chem. 2004, 279, 18711; 2002, 277, 10852); cited from earlier work
[2] = Low pH control: chemical stability in pH 2.0 buffer by 31P NMR; type: physicochemical; details: 10 mM, 37° C.
Description: (§1) Cell lysates from E. coli Tuner(DE3)pLacI cells (Novagen) were obtained by treatment with lysozyme (1 mg/ml) and the DNA was precipitated by protamine sulfate followed by centrifugation to remove cell debris. The supernatant was dialyzed extensively against Buffer A (20 mM Tris (pH 7.0); 1 mM EDTA; 1 mM DTT, 0.01 mM PMSF) to remove cellular phosphates and nucleotides. Phosphate free cell lysates (0.75 mg total protein) were incubated with 5 mM AMP-NH2 in 0.5 ml reaction buffer (0.5 mM MgCl2, 20 mM HEPES (pH 7.2)) at 37° C. for intervals of 15 min, 30 min, and 12 h. The reactions were terminated by snap freezing in a dry ice/acetone slush bath and lyophilized for 5 h. The samples were then dissolved in NMR buffer (600 μL, 50 mM EDTA, 20 mM HEPES (pH 7.2), and 1 mM TMP (trimethylphosphate, internal standard)) and the insoluble portion was spun down by centrifugation at 12,500×g for 5 min. A ^31P NMR spectrum was then collected for the supernatant. For the low pH control experiment, 10 mM AMP-NH2 in reaction buffer (500 μL, pH 2.0) was incubated at 37° C. for 12 h and the 31p signal was detected under the same conditions.
Tuner(DE3)pLacI, a modified E. coli BL21 strain, was used to determine phosphoramidase activity in cell lysates. […]

ycfF = biological target: T3, ycfF (Escherichia coli, UniProt P0ACE7); assay: Catalytic activity (velocity) of cloned, purified phosphoramidase with AMPNH2; type: biochemical, E. coli; details: pH 7.2, room temperature, 10 mM AMPNH2
T3 construct: made in house
Description: The putative bacterial phosphoramidase was cloned and over-expressed as described for the human homologue, and found to be a nucleoside phosphoramidase.
(§2) Velocity of the enzymes was determined at pH 7.2 at room temperature in the presence of 10 mM AMPNH2.

hHINT1 [3] = biological target: T2, hHINT1; assay: as above; type: biochemical
From the text: The enzyme responsible for hydrolysis of AZT amino acid phosphoramidates was cloned and characterized. After construction of a cDNA library from peripheral blood mononuclear cells (PBMCs) in T7Select10-3b phage, the phage display technique was employed to isolate the enzyme by affinity chromatography. After three rounds of phage selection and ampilification with an affinity column constructed from the L-tryptophan carbamate, DNA from ten selected plaques was amplified by PCR and sequenced. […] Hint1 is a member of the HIT protein superfamily, which consists of a recently identified adenosine 5′-monophosphoramide hydrolases from rabbit and yeast.
as §2

Yeast HNT = biological target: T4, Yeast HNT (Saccharomyces cerevisiae, UniProt Q04344); details: Bieganowski et al, 2002; cited from earlier work
T4 sequence (Q04344 1-158): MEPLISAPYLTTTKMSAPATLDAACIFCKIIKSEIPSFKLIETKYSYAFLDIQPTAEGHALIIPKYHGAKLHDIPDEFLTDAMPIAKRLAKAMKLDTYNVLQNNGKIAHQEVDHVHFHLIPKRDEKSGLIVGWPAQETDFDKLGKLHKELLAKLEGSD

[4] = biological target: T5, E. coli Tuner(DE3)pLacI cell lysates (Escherichia coli, UniProt P0ACE7); assay: 31P NMR phosphoramidase activity in cell lysates; type: biochemical
T5 construct: Cell lysates from E. coli Tuner(DE3)pLacI cells (Novagen) were obtained by treatment with lysozyme; host or cells: E. coli Tuner(DE3)pLacI
Description: (§3) Phosphoramidase activity in cell lysates was measured by the ^1H-decoupling mode of phosphorus-31 NMR spectroscopy (Varian VAC-300 spectrometer), which can clearly distinguish the substrate, AMP-NH2, and the product, adenosine 5′-monophosphate (AMP). NMR spectrometry is suitable for quantitation by integration of the area under the peak, which is proportional to the amount of nuclei present. The relative ratio of peak areas can be used to calculate the amount of turnover corrected based on a standard curve.
as §1, with “The samples were then dissolved in NMR buffer (600 μL, 50 mM EDTA, 20 mM HEPES (pH 7.2), and 1 mM TMP (trimethylphosphate, internal standard)) and the insoluble portion was spun down by centrifugation at 12,500×g for 5 min. A ^31P NMR spectrum was then collected for the supernatant.” left out, “conditions. […]” for “conditions.”

[5] = biological target: T6, BL21 Star (WT) cell lysates (Escherichia coli, UniProt P0ACE7); assay: 31P NMR phosphoramidase activity in cell lysates; type: biochemical, E. coli; details: for Specific activity: 0.5 mg protein
T6 construct: endogenous in cells; host or cells: E. coli BL21 Star
Description: as §3
as §1, with “Phosphate free cell lysates (0.75 mg total protein) were incubated with 5 mM AMP-NH2 in 0.5 ml reaction buffer (0.5 mM MgCl2, 20 mM HEPES (pH 7.2)) at 37° C. for intervals of 15 min, 30 min, and 12 h.” left out
To determine if E. coli hinT is solely responsible of the observed lysates' phosphoramidase activity, a mutant strain, BB1, in which the hinT gene was replace with the chloramphenicol resistance marker, was constructed. The phosphoramidase activities of the wild-type E. coli BL21 Star strain and the mutant strain lysates were determined (Table 3). […] (Table 2). Therefore, the adenosine phosphoramidase activity observed for E. coli cell lysates appears to be totally dependent on hinT.

T2 sequence (P49773 whole entry): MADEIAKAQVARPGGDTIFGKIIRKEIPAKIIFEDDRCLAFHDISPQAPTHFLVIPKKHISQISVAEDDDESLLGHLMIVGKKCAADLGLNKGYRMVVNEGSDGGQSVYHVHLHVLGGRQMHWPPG
T6 sequence (P0ACE7 whole entry): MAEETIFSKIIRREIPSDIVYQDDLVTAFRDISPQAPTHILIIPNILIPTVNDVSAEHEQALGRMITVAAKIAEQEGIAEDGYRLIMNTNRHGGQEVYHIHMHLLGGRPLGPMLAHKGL
T5 sequence (P0ACE7 whole entry): as above
T1 sequence (P80912 whole entry): as the sequence (P49773 whole entry) above, with R37Q, V65A, D69A, N91K, H122N counted along it
T3 sequence (P0ACE7 whole entry): as the sequence (P0ACE7 whole entry) above

Nc1ncnc2c1ncn2[C@@H]1O[C@H](COP(N)(=O)O)[C@@H](O)[C@H]1O [AMP-NH2, Adenosine 5′-monophosphoramidate]
Velocity (Rabbit HINT1): 1.71^b nmol/μg/min | Kcat (hHINT1 [1]): 0.2 s⁻¹ | Km (hHINT1 [1]): 0.068 µM | Stability at pH 2.0 (no detectable AMP or Pi) [2]: at least 12 h | Velocity (ycfF): 14.19 nmol/µg/min | Hydrolysis by over-expressed, purified human Hint1 (hHINT1 [3]): efficiently hydrolyze | Velocity (hHINT1 [3]; pH 7.2, room temperature, 10 mM AMPNH2): 5.46 nmol/µg/min | Velocity (Yeast HNT): 7.57^b nmol/μg/min | Extent of hydrolysis to AMP ([4]; 12 h incubation, 37° C.): complete hydrolysis | Hydrolysis rate by E. coli cell lysates ([4]; pH 7.0, 37° C., 5 mM, averaged for 15 min and 30 min): 76.3 (±20.9) nmol mg^−1 min^−1 | Specific activity of BL21 Star WT cell lysates [5]: 20.1 (±7.7) nmol mg^−1 min^−1 | Specific activity ([5]; 30 min): 15.5 nmol/mg/min | Specific activity ([5]; 70 min): 26.4 nmol/mg/min | Average specific activity ([5]; average): 20.95 ± 7.71 nmol/mg/min
